Assay results published in PMC5641445 (Journal of medicinal chemistry, 2017).
Counter-ions that a name gives are not always drawn.

Columns and labels:
[1] = target: mouse PKA catalytic subunits (Mus musculus, UniProt P05132); experiment: PKA inhibition, ADP-Glo Kinase Assay
[2] = tested on: mouse cardiomyocytes; type: cell-based
[3] = Metabolic stability in mouse liver microsomes; type: in vitro ADME; settings: polar carboxamides on the paroxetine template
[4] = Abbreviated pharmacokinetic study in mice after IP administration
[5] = target: T1, bovine GRK2 (S670A) (Bos taurus, UniProt P21146, S670A); experiment: GRK2 kinase inhibition
T1 sequence (P21146 1-689 S670A): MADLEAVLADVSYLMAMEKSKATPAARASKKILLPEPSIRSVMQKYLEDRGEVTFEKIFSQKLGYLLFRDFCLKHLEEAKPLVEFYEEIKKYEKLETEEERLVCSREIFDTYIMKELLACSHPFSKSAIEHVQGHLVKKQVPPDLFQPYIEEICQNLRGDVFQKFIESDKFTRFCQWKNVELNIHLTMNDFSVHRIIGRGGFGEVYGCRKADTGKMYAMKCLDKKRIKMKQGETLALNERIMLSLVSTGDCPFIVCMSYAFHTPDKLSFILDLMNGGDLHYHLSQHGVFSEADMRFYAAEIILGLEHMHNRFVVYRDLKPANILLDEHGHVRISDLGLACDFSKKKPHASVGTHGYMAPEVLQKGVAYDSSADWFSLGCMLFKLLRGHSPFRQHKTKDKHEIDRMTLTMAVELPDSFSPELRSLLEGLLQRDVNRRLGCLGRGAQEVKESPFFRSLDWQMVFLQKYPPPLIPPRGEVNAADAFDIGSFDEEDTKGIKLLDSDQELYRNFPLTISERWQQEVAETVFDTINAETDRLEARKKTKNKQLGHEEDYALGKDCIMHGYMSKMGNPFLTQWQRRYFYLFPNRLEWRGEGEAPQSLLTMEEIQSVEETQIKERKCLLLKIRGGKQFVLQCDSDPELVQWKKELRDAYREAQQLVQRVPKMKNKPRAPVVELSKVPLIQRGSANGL

[6] = target: bovine GRK5 (Bos taurus, UniProt P43249); experiment: GRK5 kinase inhibition
bovine GRK5, sequence (P43249 whole entry): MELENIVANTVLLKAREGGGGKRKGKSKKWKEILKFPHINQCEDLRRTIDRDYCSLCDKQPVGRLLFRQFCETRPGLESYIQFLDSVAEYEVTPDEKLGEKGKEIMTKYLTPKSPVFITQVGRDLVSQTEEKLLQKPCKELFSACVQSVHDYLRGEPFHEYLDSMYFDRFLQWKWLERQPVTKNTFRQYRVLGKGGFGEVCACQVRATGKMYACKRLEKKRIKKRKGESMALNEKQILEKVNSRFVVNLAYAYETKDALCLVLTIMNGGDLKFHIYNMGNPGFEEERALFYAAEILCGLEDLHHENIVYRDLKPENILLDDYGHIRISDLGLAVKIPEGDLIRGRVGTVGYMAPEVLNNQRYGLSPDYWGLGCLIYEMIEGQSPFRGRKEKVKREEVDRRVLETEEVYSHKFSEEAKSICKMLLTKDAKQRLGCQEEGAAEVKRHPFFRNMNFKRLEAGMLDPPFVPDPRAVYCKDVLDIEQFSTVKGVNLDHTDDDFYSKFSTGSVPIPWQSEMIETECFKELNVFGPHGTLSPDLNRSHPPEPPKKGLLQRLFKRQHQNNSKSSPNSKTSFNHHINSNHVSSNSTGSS

[7] = female, CD-1, mouse, plasma, ip, 10 mg/kg

SMILES | IC50 [1] | other results
CNC(=O)c1cc([C@@H]2CCNC[C@H]2COc2ccc3c(c2)OCO3)ccc1F [14aa, 5-((3S,4R)-3-((benzo[d][1,3]dioxol-5-yloxy)methyl)piperidin-4-yl)-2-fluoro-N-methylbenzamide] | > 100 µM | 
O=C(NCc1ncc[nH]1)c1cc([C@@H]2CCNC[C@H]2COc2ccc3c(c2)OCO3)ccc1F [14aq, N-((1H-imidazol-2-yl)methyl)-5-((3S,4R)-3-((benzo[d][1,3]dioxol-5-yloxy)methyl)piperidin-4-yl)-2-fluorobenzamide] | > 100 µM | 
O=C(NCCc1c[nH]cn1)c1cc([C@@H]2CCNC[C@H]2COc2ccc3c(c2)OCO3)ccc1F [14ar, N-(2-(1H-imidazol-4-yl)ethyl)-5-((3S,4R)-3-((benzo[d][1,3]dioxol-5-yloxy)methyl)piperidin-4-yl)-2-fluorobenzamide] | > 100 µM | 
O=C(NCc1ccn[nH]1)c1cc([C@@H]2CCNC[C@H]2COc2ccc3c(c2)OCO3)ccc1F [14as, N-((1H-pyrazol-5-yl)methyl)-5-((3S,4R)-3-((benzo[d][1,3]dioxol-5-yloxy)methyl)piperidin-4-yl)-2-fluorobenzamide] | > 100 µM | improvement in contractility efficacy over compound 4 [2]: 5 fold; concentration giving improved contractility ([2]; isoproterenol-stimulated): 100 nM; metabolic stability in MLM, in words [3]: substantial metabolic instability; concentration at 30 min [4, 7]: 2710 nM; concentration at 2 h [4, 7]: 1440 nM; concentration at 4 h [4, 7]: 270 nM; concentration at 7 h [4, 7]: 43 nM; time with plasma concentration higher than GRK2 IC50 ([…] nM) ([4]; mice, single IP administration 10 mg/kg): over seven
O=C(NCCc1cc[nH]n1)c1cc([C@@H]2CCNC[C@H]2COc2ccc3c(c2)OCO3)ccc1F [14at, N-(2-(1H-pyrazol-3-yl)ethyl)-5-((3S,4R)-3-((benzo[d][1,3]dioxol-5-yloxy)methyl)piperidin-4-yl)-2-fluorobenzamide] | > 100 µM | decrease in GRK2 potency relative to 14as [5]: 26 fold
Cc1cc(CNC(=O)c2cc([C@@H]3CCNC[C@H]3COc3ccc4c(c3)OCO4)ccc2F)n[nH]1 [14au, 5-((3S,4R)-3-((benzo[d][1,3]dioxol-5-yloxy)methyl)piperidin-4-yl)-2-fluoro-N-((5-methyl-1H-pyrazol-3-yl)methyl)benzamide] | > 100 µM | selectivity for GRK2 over GRK5 [6]: > 100 fold
Cn1ccc(CNC(=O)c2cc([C@@H]3CCNC[C@H]3COc3ccc4c(c3)OCO4)ccc2F)n1 [14av, 5-((3S,4R)-3-((benzo[d][1,3]dioxol-5-yloxy)methyl)piperidin-4-yl)-2-fluoro-N-((1-methyl-1H-pyrazol-3-yl)methyl)benzamide] | > 100 µM | decrease in GRK2 potency relative to 14as [5]: 40 fold
Cn1nccc1CNC(=O)c1cc([C@@H]2CCNC[C@H]2COc2ccc3c(c2)OCO3)ccc1F [14aw, 5-((3S,4R)-3-((benzo[d][1,3]dioxol-5-yloxy)methyl)piperidin-4-yl)-2-fluoro-N-((1-methyl-1H-pyrazol-5-yl)methyl)benzamide] | > 100 µM | decrease in GRK2 potency relative to 14as [5]: 70 fold
O=C(NCc1cn[nH]c1)c1cc([C@@H]2CCNC[C@H]2COc2ccc3c(c2)OCO3)ccc1F [14ax, N-((1H-pyrazol-4-yl)methyl)-5-((3S,4R)-3-((benzo[d][1,3]dioxol-5-yloxy)methyl)piperidin-4-yl)-2-fluorobenzamide] | > 100 µM | decrease in GRK2 potency relative to 14as [5]: 10 fold
O=C(NCCc1cn[nH]c1)c1cc([C@@H]2CCNC[C@H]2COc2ccc3c(c2)OCO3)ccc1F [14ay, N-(2-(1H-pyrazol-4-yl)ethyl)-5-((3S,4R)-3-((benzo[d][1,3]dioxol-5-yloxy)methyl)piperidin-4-yl)-2-fluorobenzamide hydrochloride] | > 100 µM | 
O=C(Cc1cc([C@@H]2CCNC[C@H]2COc2ccc3c(c2)OCO3)ccc1F)NCCc1ccccn1 [14bc, 2-(5-((3S,4R)-3-((benzo[d][1,3]dioxol-5-yloxy)methyl)piperidin-4-yl)-2-fluorophenyl)-N-(2-(pyridin-2-yl)ethyl)acetamide hydrochloride] | > 100 µM | 
O=C(Cc1cc([C@@H]2CCNC[C@H]2COc2ccc3c(c2)OCO3)ccc1F)NCCc1cn[nH]c1 [14bd, N-(2-(1H-pyrazol-4-yl)ethyl)-2-(5-((3S,4R)-3-((benzo[d][1,3]dioxol-5-yloxy)methyl)piperidin-4-yl)-2-fluorophenyl)acetamide] | > 100 µM | increase in GRK2 potency relative to paroxetine [5]: 2 fold
Fc1ccc([C@@H]2CCNC[C@H]2COc2ccc3c(c2)OCO3)cc1 [Paroxetine, paroxetine, reference compound] | > 100 µM | 

More lines, main results first:

IC50 [1] | SMILES | other results
> 100 µM | O=C(NCc1ccccc1)c1cc([C@@H]2CCNC[C@H]2COc2ccc3c(c2)OCO3)ccc1F [14ab, 5-((3S,4R)-3-((benzo[d][1,3]dioxol-5-yloxy)methyl)piperidin-4-yl)-N-benzyl-2-fluorobenzamide] | 
> 100 µM | O=C(NCCc1ccccc1)c1cc([C@@H]2CCNC[C@H]2COc2ccc3c(c2)OCO3)ccc1F [14ac, 5-((3S,4R)-3-((benzo[d][1,3]dioxol-5-yloxy)methyl)piperidin-4-yl)-2-fluoro-N-phenethylbenzamide] | 
> 100 µM | O=C(NCc1c(F)cccc1F)c1cc([C@@H]2CCNC[C@H]2COc2ccc3c(c2)OCO3)ccc1F [14ad, 5-((3S,4R)-3-((benzo[d][1,3]dioxol-5-yloxy)methyl)piperidin-4-yl)-N-(2,6-difluorobenzyl)-2-fluorobenzamide hydrochloride] | 
> 100 µM | O=C(NCCc1c(F)cccc1F)c1cc([C@@H]2CCNC[C@H]2COc2ccc3c(c2)OCO3)ccc1F [14ae, 5-((3S,4R)-3-((benzo[d][1,3]dioxol-5-yloxy)methyl)piperidin-4-yl)-N-(2,6-difluorophenethyl)-2-fluorobenzamide] | 
> 100 µM | O=C(NCc1ccccc1C(F)(F)F)c1cc([C@@H]2CCNC[C@H]2COc2ccc3c(c2)OCO3)ccc1F [14af, 5-((3S,4R)-3-((benzo[d][1,3]dioxol-5-yloxy)methyl)piperidin-4-yl)-2-fluoro-N-(2-(trifluoromethyl)benzyl)benzamide] | 
> 100 µM | Cc1cccc(C)c1CNC(=O)c1cc([C@@H]2CCNC[C@H]2COc2ccc3c(c2)OCO3)ccc1F [14ag, 5-((3S,4R)-3-((benzo[d][1,3]dioxol-5-yloxy)methyl)piperidin-4-yl)-N-(2,6-dimethylbenzyl)-2-fluorobenzamide hydrochloride] | 
> 100 µM | O=C(NCc1c(Cl)cccc1Cl)c1cc([C@@H]2CCNC[C@H]2COc2ccc3c(c2)OCO3)ccc1F [14ah, 5-((3S,4R)-3-((benzo[d][1,3]dioxol-5-yloxy)methyl)piperidin-4-yl)-N-(2,6-dichlorobenzyl)-2-fluorobenzamide] | 
> 100 µM | COc1cccc(OC)c1CNC(=O)c1cc([C@@H]2CCNC[C@H]2COc2ccc3c(c2)OCO3)ccc1F [14ai, 5-((3S,4R)-3-((benzo[d][1,3]dioxol-5-yloxy)methyl)piperidin-4-yl)-N-(2,6-dimethoxybenzyl)-2-fluorobenzamide hydrochloride] | 
> 100 µM | COc1ccccc1CNC(=O)c1cc([C@@H]2CCNC[C@H]2COc2ccc3c(c2)OCO3)ccc1F [14aj, 5-((3S,4R)-3-((benzo[d][1,3]dioxol-5-yloxy)methyl)piperidin-4-yl)-2-fluoro-N-(2-methoxybenzyl)benzamide hydrochloride] | 
> 100 µM | O=C(NCc1cccnc1)c1cc([C@@H]2CCNC[C@H]2COc2ccc3c(c2)OCO3)ccc1F [14al, 5-((3S,4R)-3-((benzo[d][1,3]dioxol-5-yloxy)methyl)piperidin-4-yl)-2-fluoro-N-(pyridin-3-ylmethyl)benzamide] | 
> 100 µM | O=C(NCc1ccncc1)c1cc([C@@H]2CCNC[C@H]2COc2ccc3c(c2)OCO3)ccc1F [14am, 5-((3S,4R)-3-((benzo[d][1,3]dioxol-5-yloxy)methyl)piperidin-4-yl)-2-fluoro-N-(pyridin-4-ylmethyl)benzamide] | 
> 100 µM | O=C(NCCc1ccccn1)c1cc([C@@H]2CCNC[C@H]2COc2ccc3c(c2)OCO3)ccc1F [14an, 5-((3S,4R)-3-((benzo[d][1,3]dioxol-5-yloxy)methyl)piperidin-4-yl)-2-fluoro-N-(2-(pyridin-2-yl)ethyl)benzamide] | 
> 100 µM | O=C(NCCc1cccnc1)c1cc([C@@H]2CCNC[C@H]2COc2ccc3c(c2)OCO3)ccc1F [14ao, 5-((3S,4R)-3-((benzo[d][1,3]dioxol-5-yloxy)methyl)piperidin-4-yl)-2-fluoro-N-(2-(pyridin-3-yl)ethyl)benzamide] | 
> 100 µM | O=C(NCCc1ccncc1)c1cc([C@@H]2CCNC[C@H]2COc2ccc3c(c2)OCO3)ccc1F [14ap, 5-((3S,4R)-3-((benzo[d][1,3]dioxol-5-yloxy)methyl)piperidin-4-yl)-2-fluoro-N-(2-(pyridin-4-yl)ethyl)benzamide] | 
